Experimental data as given in the supplement of paper PMC10307832.

What was measured:
[1] = compound: C=CCn1c(=O)c2cnc(Nc3ccc(N4CCN(C)CC4)cc3)nc2n1-c1cccc(C(C)(C)O)n1 [Adavosertib] + NC(=O)Nc1cc(-c2cccc(F)c2)sc1C(=O)N[C@H]1CCCNC1 [AZD7762] (partner 0.2 µM); assay: relative viability (nuclei count vs DMSO), 5 days (fraction); higher = more cells survive
In short: (§1)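 Lung cancer cell lines in 1536-well plates were dosed by pin tool the day after seeding, either with one drug alone or with a fixed anchor-drug dose plus five library-drug doses (not always all listed) in √10 steps. After 5 days, cells were fixed and their nuclei stained in one step (final 0.05% Triton X-100, 1% formaldehyde, 1 ug/ml Hoechst), then counted on 4× images. Relative viability is the nuclei count in treated wells divided by that in vehicle wells. Values are medians of duplicate plates.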

[2] = compound: C=CCn1c(=O)c2cnc(Nc3ccc(N4CCN(C)CC4)cc3)nc2n1-c1cccc(C(C)(C)O)n1 [Adavosertib] + CC(=O)Nc1cccc(-n2c(=O)n(C3CC3)c(=O)c3c(Nc4ccc(I)cc4F)n(C)c(=O)c(C)c32)c1 [Trametinib] (partner 0.02 µM); assay: as above
In short: as §1

Cell Line | relative viability ([1]; first compound 0.01 µM) | relative viability ([1]; first compound 0.03162 µM) | relative viability ([1]; first compound 0.1 µM) | relative viability ([1]; first compound 0.3162 µM) | relative viability ([2]; first compound 0.01 µM) | relative viability ([2]; first compound 0.03162 µM) | relative viability ([2]; first compound 0.1 µM) | relative viability ([2]; first compound 0.3162 µM)
HCC-15 | 1.1 | 1.28 | 1.57 | 1.14 | 0.399 | 0.402 | 0.377 | 0.379
NCI-H2342 | 0.524 | 0.508 | 0.48 | 0.43 | 0.922 | 0.829 | 0.776 | 0.848
PC-3 [JPC-3] |  | 0.757 | 0.777 | 0.709 |  | 0.667 | 0.761 | 0.746
NCI-H1648 | 0.549 | 0.532 | 0.533 | 0.414 | 0.536 | 0.473 | 0.594 | 0.448
NCI-H1915 | 0.724 | 0.657 | 0.566 | 0.238 | 0.329 | 0.338 | 0.322 | 0.33
ChaGo-K-1 | 0.918 | 0.836 | 0.732 | 0.29 | 0.884 | 0.844 | 0.901 | 0.883
PC-14 | 0.261 | 0.289 | 0.224 | 0.0765 | 0.704 | 0.808 | 0.862 | 0.683
LK-2 | 0.29 | 0.374 | 0.236 | 0.168 | 0.759 | 0.823 | 0.701 | 0.84
COR-L 105 |  |  |  |  | 0.436 | 0.463 | 0.48 | 0.347
UMC-11 |  |  |  |  | 0.74 | 0.633 | 0.743 | 0.615
NCI-H1975 | 0.713 | 0.677 | 0.663 | 0.641 | 0.303 | 0.309 | 0.327 | 0.415
LXF-289 | 1.08 | 0.984 | 0.683 | 0.231 | 0.746 | 0.696 | 0.701 | 0.678
NCI-H1993 | 0.905 | 0.828 | 0.697 | 0.807 | 0.42 | 0.449 | 0.535 | 0.561
NCI-H23 | 0.227 | 0.143 | 0.118 | 0.142 | 0.363 | 0.395 | 0.339 | 0.226
NCI-H1650 |  |  |  |  | 0.587 | 0.616 | 0.539 | 0.574
NCI-H2023 |  |  |  |  | 0.575 | 0.521 | 0.62 | 0.267
COR-L23 |  |  |  |  | 0.622 | 0.577 | 0.565 | 0.251
LCLC-97TM1 | 0.289 | 0.264 | 0.138 | 0.0845 | 0.223 | 0.171 | 0.227 | 0.21
NCI-H441 | 1.12 | 0.989 | 0.658 | 0.355 | 0.432 | 0.509 | 0.373 | 0.423

Cell Line | relative viability ([1]; first compound 0.01 µM) | relative viability ([1]; first compound 0.03162 µM) | relative viability ([1]; first compound 0.1 µM) | relative viability ([1]; first compound 0.3162 µM) | relative viability ([2]; first compound 0.01 µM) | relative viability ([2]; first compound 0.03162 µM) | relative viability ([2]; first compound 0.1 µM) | relative viability ([2]; first compound 0.3162 µM)
NCI-H1734 | 0.379 | 0.315 | 0.202 | 0.168 | 0.64 | 0.726 | 0.711 | 0.711
NCI-H1437 | 1.11 | 1.11 | 1.15 | 0.581 | 0.546 | 0.545 | 0.484 | 0.414
NCI-H727 | 0.636 | 0.406 | 0.445 | 0.394 | 0.427 | 0.383 | 0.396 | 0.385
NCI-H1651 | 0.415 | 0.299 | 0.264 | 0.132 | 0.841 | 0.85 | 0.864 | 0.871
NCI-H838 | 0.986 | 0.831 | 0.722 | 0.626 | 0.488 | 0.531 | 0.503 | 0.582
NCI-H522 | 0.654 | 0.733 | 0.782 | 0.882 | 0.797 | 0.75 | 0.736 | 0.653
NCI-H460 | 0.376 | 0.507 | 0.169 | 0.0591 | 0.179 | 0.137 | 0.197 | 0.124
HCC-78 | 0.512 | 0.603 | 0.564 | 0.368 | 0.859 | 0.737 | 0.888 | 0.852
SK-LU-1 |  |  |  |  | 0.611 | 0.505 | 0.509 | 0.316
NCI-H2170 | 0.919 | 0.838 | 0.725 | 0.266 | 0.946 | 0.972 | 0.831 | 0.745
HOP-62 | 0.697 | 0.382 | 0.364 | 0.116 | 0.357 | 0.406 | 0.356 | 0.384
NCI-H1703 | 0.105 | 0.13 | 0.122 | 0.118 |  |  |  | 
NCI-H2228 |  |  |  |  |  | 0.498 | 0.465 | 0.404
SK-MES-1 |  |  |  |  | 0.556 | 0.576 | 0.529 | 0.486
NCI-H1755 | 0.455 | 0.33 | 0.327 | 0.253 | 0.818 | 0.78 | 0.818 | 0.744
NCI-H2126 | 0.962 | 1.03 | 0.949 | 0.788 | 0.571 | 0.528 | 0.619 | 0.619
NCI-H596 | 1.04 | 1.05 | 0.844 | 0.751 | 0.81 | 0.79 | 0.678 | 0.796
NCI-H1944 | 0.511 | 0.31 | 0.23 | 0.164 | 0.376 | 0.377 | 0.378 | 0.372
ABC-1 | 0.87 | 0.706 | 0.623 | 0.802 |  |  |  | 
